In ChEMBL document CHEMBL1687711:
Activity calls are given as the source filed them. No cut-off for these calls is given here.

How the values were obtained:
[1] = system: THP-1; assay: Effect on TLR4 mRNA expression in human THP1 cells at 0.5 ug/ml after 6 hrs by RT-PCR analysis; format: functional, cell-based
[2] = system: THP-1; assay: Increase in NF-kappaB-mediated TNF-alpha mRNA expression in human THP1 cells co-incubated with Aspergillus fumigatus hyphae at 0.5 ug/ml after 6 hrs by RT-PCR analysis; format: cell-based
[3] = system: THP-1; assay: Effect on TLR4 mRNA expression in human THP1 cells co-incubated with Aspergillus fumigatus hyphae at 0.5 ug/ml after 6 hrs by RT-PCR analysis; format: functional, cell-based
[4] = system: Aspergillus fumigatus; assay: Antifungal activity against Aspergillus fumigatus AF4215 hyphae co-incubated with human THP1 cells assessed as hyphal damage at 0.1 ug/ml after 6 hrs by XTT assay; format: functional, organism-based; details: THP-1
[5] = system: THP-1; assay: Increase in NF-kappaB-mediated TLR2 protein expression in human THP1 cells at 0.5 ug/ml after 6 hrs by Western blot analysis; format: cell-based
[6] = system: Aspergillus fumigatus; assay: Antifungal activity against Aspergillus fumigatus AF4215 hyphae assessed as hyphal damage at 0.1 ug/ml after 20 hrs by XTT assay; format: functional, organism-based
[7] = system: THP-1; assay: Increase in NF-kappaB-mediated TLR2 mRNA expression in human THP1 cells at 0.5 ug/ml after 6 hrs by RT-PCR analysis; format: cell-based
[8] = system: THP-1; assay: Effect on TLR4 protein expression in human THP1 cells co-incubated with Aspergillus fumigatus hyphae at 0.5 ug/ml after 6 hrs by Western blot analysis; format: functional, cell-based
[9] = system: THP-1; assay: Effect on TLR4 protein expression in human THP1 cells at 0.5 ug/ml after 6 hrs by Western blot analysis; format: functional, cell-based
[10] = system: Aspergillus fumigatus; assay: Antifungal activity against Aspergillus fumigatus AF4215 hyphae co-incubated with human monocytes assessed as hyphal damage at 0.1 ug/ml after 20 hrs by XTT assay; format: functional, organism-based
[11] = system: Aspergillus fumigatus; assay: Antifungal activity against Aspergillus fumigatus AF4215 hyphae co-incubated with monocytes assessed as hyphal damage at 0.1 ug/ml after 6 hrs by XTT assay; format: functional, organism-based
[12] = system: THP-1; assay: Increase in NF-kappaB-mediated TNF-alpha mRNA expression in human THP1 cells at 0.5 ug/ml after 6 hrs by RT-PCR analysis; format: cell-based
[13] = system: THP-1; assay: Increase in NF-kappaB-mediated TLR2 protein expression in human THP1 cells co-incubated with Aspergillus fumigatus hyphae at 0.5 ug/ml after 6 hrs by Western blot analysis; format: cell-based
[14] = system: THP-1; assay: Increase in NF-kappaB-mediated TLR2 mRNA expression in human THP1 cells co-incubated with Aspergillus fumigatus hyphae at 0.5 ug/ml after 6 hrs by RT-PCR analysis; format: cell-based

Q: With `C[C@@H](c1ncncc1F)[C@](O)(Cn1cncn1)c1ccc(F)cc1F` as the compound, how does the Activity [1] read?
A: The Activity was “inactive”.

Q: What about the Activity [2] of the same compound?
A: The Activity was “Active”.

Q: And the Activity [3]?
A: The Activity was “inactive”.

Q: What about the Activity [4] of the same compound?
A: The Activity was “Active”.

Q: And the Activity [5]?
A: The Activity was “Active”.

Q: And the Activity [6]?
A: The Activity was “Active”.

Q: What about the Activity [7] of the same compound?
A: The Activity was “Active”.

Q: And the Activity [8]?
A: The Activity was “inactive”.

Q: And the Activity [9]?
A: The Activity was “inactive”.

Q: What about the Activity [10] of the same compound?
A: The Activity was “Active”.

Q: And the Activity [11]?
A: The Activity was “Active”.

Q: And the Activity [12]?
A: Its Activity is “Active”.

Q: What about the Activity [13] of the same compound?
A: The Activity was “Active”.

Q: What about the Activity [14] of the same compound?
A: Its Activity is “Active”.
